Measured values reported in patent US20150202172A1, “NOVEL METHOD OF USE” (Glaxo Group Limited, priority 2014, published 2015).
Values joined by “and” are separate entries in the source; they are usually repeats but may differ in a detail not shown here. Equal values may be shown once.

Columns and labels:
[1] = tested on: patients with Severe Refractory Chronic Hand Eczema (CHE); assay: Clinical trial simulation (longitudinal dose response model): PGA score at end of treatment; type: in vivo, human; conditions: duration of treatment 24 weeks; 30 mg
Description: (§1) In clinical studies, efficacy was measured using PGA score and modified total lesion signs and symptoms (mTLSS) at various times during and post treatment. PGA scores over time were chosen for this analysis because PGA scores were the primary endpoint in the Phase III studies and were collected at more time points than the mTLSS. The PGA was graded according to 5 point scale (clear, almost clear, mild disease, moderate disease, severe disease). The mTLSS severity score was graded 0 to 3 for 7 parameters.
(§2) For the Physician Global Assessment (PGA), a general description of CHE severity, which is a well recognized scale is shown below in Table 7 for clarification purposes.

[2] = tested on: patients with Severe Refractory Chronic Hand Eczema (CHE); assay: Clinical trial simulation (longitudinal dose response model): no relapse (PGA ≠ 5) by 6 months post treatment; type: in vivo, human; conditions: for Proportion of Responders Who Did Not Relapse (PGA ≠ 5) 6 months Post Treatment / Proportion of Subjects with PGA = 1 at end of treatment who did not relapse (PGA ≠ 5) 6 Months Post Treatment / Proportion of Subjects with PGA = 2 at the end of treatment who did not relapse (PGA ≠ 5) 6 Months Post Treatment / Proportion of Subjects with PGA = 3 at the end of treatment who did not relapse (PGA ≠ 5) 6 Months Post Treatment / Proportion of Subjects with PGA = 1 Who Did Not Relapse (PGA ≠ 5) 6 Months Post Treatment / Proportion of Subjects with PGA = 2 Who Did Not Relapse (PGA ≠ 5) 6 Months Post Treatment / Proportion of Subjects with PGA = 3 Who Did Not Relapse (PGA ≠ 5) 6 Months Post Treatment: 30 mg
Description: In reviewing the data to make these determinations, all available PGA scores observed (not including scores derived from missing data such as last observation carried forward (LOCF) including those at baseline, every 4 weeks during treatment, and every 4 to 8 weeks after cessation of treatment for up to 72 weeks post treatment from the various clinical trials were used to develop a longitudinal dose response model.
as §1, §2

CC1=C(/C=C/C(C)=C\C=C\C(C)=C\C(=O)O)C(C)(C)CCC1 [Alitretinoin, 9-cis isomer of retinoic acid (RA)]
Proportion of Subjects (PGA = 3) at End of Treatment [1]: 28.2 (21, 35) %
subjects who responded (PGA score=1 or 2) who would not return to severe disease within 6 months post treatment ([2]; PGA score=1 or 2): > 83%
difference between a 75 year old and 30 year old in the proportion of patients who did not relapse (PGA score≠5) 6 months after treatment ([2]; PGA=1 or PGA=2 at end of treatment (individually)): 10%
Proportion of Responders Who Did Not Relapse (PGA ≠ 5) 6 months Post Treatment ([2]; age 30 yr): 79% and 78.7 (67, 90) %
Proportion of Subjects with PGA = 1 at end of treatment who did not relapse (PGA ≠ 5) 6 Months Post Treatment ([2]; age 30 yr): 77.7 (56, 92) %
Proportion of Subjects with PGA = 2 at the end of treatment who did not relapse (PGA ≠ 5) 6 Months Post Treatment ([2]; age 30 yr): 77.6 (62, 91) %
Proportion of Subjects with PGA = 3 at the end of treatment who did not relapse (PGA ≠ 5) 6 Months Post Treatment ([2]; age 30 yr): 76.8 (63, 89) %
Proportion of Responders Who Did Not Relapse (PGA ≠ 5) 6 months Post Treatment ([2]; age 50 yr): 83.2 (73, 92) %
Proportion of Subjects with PGA = 1 at end of treatment who did not relapse (PGA ≠ 5) 6 Months Post Treatment ([2]; age 50 yr): 82.4 (65, 94) %
Proportion of Subjects with PGA = 2 at the end of treatment who did not relapse (PGA ≠ 5) 6 Months Post Treatment ([2]; age 50 yr): 82.6 (70, 93) %
Proportion of Subjects with PGA = 3 at the end of treatment who did not relapse (PGA ≠ 5) 6 Months Post Treatment ([2]; age 50 yr): 81.1 (68, 93) %
Proportion of Responders Who Did Not Relapse (PGA ≠ 5) 6 months Post Treatment ([2]; age 65 yr): 87% and 86.6 (78, 94) %
Proportion of Subjects with PGA = 1 at end of treatment who did not relapse (PGA ≠ 5) 6 Months Post Treatment ([2]; age 65 yr): 86.0 (73, 95) %
Proportion of Subjects with PGA = 2 at the end of treatment who did not relapse (PGA ≠ 5) 6 Months Post Treatment ([2]; age 65 yr): 86.0 (74, 96) %
Proportion of Subjects with PGA = 3 at the end of treatment who did not relapse (PGA ≠ 5) 6 Months Post Treatment ([2]; age 65 yr): 84.3 (72, 95) %
Proportion of Responders Who Did Not Relapse (PGA ≠ 5) 6 months Post Treatment ([2]; age 75 yr): 89% and 88.7 (81, 95) %
Proportion of Subjects with PGA = 1 at end of treatment who did not relapse (PGA ≠ 5) 6 Months Post Treatment ([2]; age 75 yr): 88.1 (76, 96) %
Proportion of Subjects with PGA = 2 at the end of treatment who did not relapse (PGA ≠ 5) 6 Months Post Treatment ([2]; age 75 yr): 88.0 (78, 96) %
Proportion of Subjects with PGA = 3 at the end of treatment who did not relapse (PGA ≠ 5) 6 Months Post Treatment ([2]; age 75 yr): 86.5 (74, 96) %
Proportion of Responders Who Did Not Relapse (PGA ≠ 5) 6 months Post Treatment ([2]; duration of treatment 4 weeks): 79.2 (68, 89) %
Proportion of Subjects with PGA = 1 Who Did Not Relapse (PGA ≠ 5) 6 Months Post Treatment ([2]; duration of treatment 4 weeks): 79.8 (61, 93) %
Proportion of Subjects with PGA = 2 Who Did Not Relapse (PGA ≠ 5) 6 Months Post Treatment ([2]; duration of treatment 4 weeks): 77.9 (64, 91) %
Proportion of Subjects with PGA = 3 Who Did Not Relapse (PGA ≠ 5) 6 Months Post Treatment ([2]; duration of treatment 4 weeks): 76.4 (62, 88) %
Proportion of Responders Who Did Not Relapse (PGA ≠ 5) 6 months Post Treatment ([2]; duration of treatment 8 weeks): 80.7 (70, 90) %
Proportion of Subjects with PGA = 1 Who Did Not Relapse (PGA ≠ 5) 6 Months Post Treatment ([2]; duration of treatment 8 weeks): 81.0 (63, 94) %
Proportion of Subjects with PGA = 2 Who Did Not Relapse (PGA ≠ 5) 6 Months Post Treatment ([2]; duration of treatment 8 weeks): 79.5 (67, 92) %
Proportion of Subjects with PGA = 3 Who Did Not Relapse (PGA ≠ 5) 6 Months Post Treatment ([2]; duration of treatment 8 weeks): 77.8 (65, 89) %
Proportion of Responders Who Did Not Relapse (PGA ≠ 5) 6 months Post Treatment ([2]; duration of treatment 12 weeks): 82.3 (68, 95) %
Proportion of Subjects with PGA = 1 Who Did Not Relapse (PGA ≠ 5) 6 Months Post Treatment ([2]; duration of treatment 12 weeks): 81.9 (64, 94) %
Proportion of Subjects with PGA = 2 Who Did Not Relapse (PGA ≠ 5) 6 Months Post Treatment ([2]; duration of treatment 12 weeks): 80.8 (68, 92) %
Proportion of Subjects with PGA = 3 Who Did Not Relapse (PGA ≠ 5) 6 Months Post Treatment ([2]; duration of treatment 12 weeks): 79.1 (67, 90) %
Proportion of Responders Who Did Not Relapse (PGA ≠ 5) 6 months Post Treatment ([2]; duration of treatment 16 weeks): 83.3 (72, 94) %
Proportion of Subjects with PGA = 1 Who Did Not Relapse (PGA ≠ 5) 6 Months Post Treatment ([2]; duration of treatment 16 weeks): 82.5 (66, 94) %
Proportion of Subjects with PGA = 2 Who Did Not Relapse (PGA ≠ 5) 6 Months Post Treatment ([2]; duration of treatment 16 weeks): 81.7 (69, 92) %
Proportion of Subjects with PGA = 3 Who Did Not Relapse (PGA ≠ 5) 6 Months Post Treatment ([2]; duration of treatment 16 weeks): 80.1 (67, 91) %
Proportion of Responders Who Did Not Relapse (PGA ≠ 5) 6 months Post Treatment ([2]; duration of treatment 20 weeks): 83.9 (72, 94) %
Proportion of Subjects with PGA = 1 Who Did Not Relapse (PGA ≠ 5) 6 Months Post Treatment ([2]; duration of treatment 20 weeks): 83.1 (67, 94) %
Proportion of Subjects with PGA = 2 Who Did Not Relapse (PGA ≠ 5) 6 Months Post Treatment ([2]; duration of treatment 20 weeks): 82.6 (69, 94) %
Proportion of Subjects with PGA = 3 Who Did Not Relapse (PGA ≠ 5) 6 Months Post Treatment ([2]; duration of treatment 20 weeks): 80.9 (68, 92) %
Proportion of Responders Who Did Not Relapse (PGA ≠ 5) 6 months Post Treatment ([2]; duration of treatment 24 weeks): 84.4 (75, 93) %
Proportion of Subjects with PGA = 1 Who Did Not Relapse (PGA ≠ 5) 6 Months Post Treatment ([2]; duration of treatment 24 weeks): 83.7 (67, 94) %
Proportion of Subjects with PGA = 2 Who Did Not Relapse (PGA ≠ 5) 6 Months Post Treatment ([2]; duration of treatment 24 weeks): 83.3 (70, 95) %
Proportion of Subjects with PGA = 3 Who Did Not Relapse (PGA ≠ 5) 6 Months Post Treatment ([2]; duration of treatment 24 weeks): 81.6 (68, 92) %
